{
  "source": "patent US20120046327A1",
  "about": "“METHOD FOR INHIBITING THE INDUCTION AND FORMATION OF OSTEOCLASTS” (OSAKA UNIVERSITY, priority 2005, published 2012)",
  "key": {"[1]": {"test_system": "RANKL (Receptor Activator of NK-κB Ligand) in human osteoblasts", "test": "sRANKL expression increased by AngII in human osteoblasts", "type": "cell-based", "conditions": "two-day cultivation", "method": "Purpose: Using human osteoblasts, expression of RANKL (Receptor Activator of NK-κB Ligand) which increases with angiotensin 2 (AngII) was measured. Then, inhibitory effect of olmesartan doxomil was examined.\nMethods: Human osteoblasts (Clonetics Corp., Palo Alto, Calif.) were cultured in DMEM medium under conditions of 10% FCS, 5% CO2 and 37° C. AngII (1 μM) (Sigma) was added to the culture. After two-day cultivation, sRANKL (soluble Receptor Activator of NK-κB Ligand) contained in the culture supernatant was examined by […] (Biomedica). Further, effect produced by simultaneous administration of olmesartan (1 μM) or angiotensin type II receptor antagonist PD (123319) (chemical name: (S)-1-(4-[dimethylamino]-3-methylphenyl)methyl-5-(diphenylacetyl)-4,5,6,7-tetrahydro-1H-imidazo[4,5-c]pyridine-6-carboxylate) (1 μM) (Sigma-aldrich) was also examined."}, "[2]": {"test_system": "TRAP (tartarate-resistant acid phosphatase) activity in the thigh bone", "test": "TRAP activity in the thigh bone of ovariectomized spontaneously hypertensive rats", "type": "in vivo, spontaneously hypertensive rats (SHR)", "conditions": "osmotic pump, one month after ovariectomy, ovariectomy group 76.9±9.9, non-treatment 59.6±1.0", "method": "(§1) Purpose: Using spontaneously hypertensive rats, increase in TRAP (tartarate-resistant acid phosphatase) activity in the thigh bone and decrease in the bone density after ovariectomy were measured. Then, inhibitory effects of olmesartan medoxomil against TRAP activity increase and bone density decrease were examined. TRAP is a marker enzyme for osteoclasts, and TRAP activity increases when osteoclasts are activated. When osteoclasts are activated, bone is resorbed and thus bone density is decreased.\n(§2) Methods: The ovary was removed from 8-week-old female spontaneously hypertensive rats (SHR) (Charles River). After one month observation, the thigh bone was removed, followed by measurement of TRAP activity in the bone (Walter K., et al., Method of Enzymatic Analysis, Academic Press, New York & London: 1974; 856-870) and simultaneous measurement of bone density (Venken K., et al., Bone 2005; 36: 663-670). Further, from immediately after the ovariectomy, olmesartan was administered subcutaneously at two different concentrations of 0.5 mg/kg/day and 1 mg/kg/day using an osmotic pressure pump (Alzet model 2004; Alza Corp)."}, "[3]": {"test": "Bone density, bone length and weight in ovariectomized spontaneously hypertensive rats", "type": "in vivo, spontaneously hypertensive rats (SHR)", "conditions": "one month after ovariectomy, ovariectomy group 0.1438±0.003445, non-treatment 0.1685±0.002684", "method": "as §1, §2\nAlthough administration of olmesartan brought no changes in the length and weight of the bone, concentration dependent decrease was recognized in TRAP activity in the thigh bone (Ovariectomy+ARB0.5 group: 71.7±8.7 U/L; Ovariectomy+ARB 1 group: 66.1±3.6 U/L). […]"}, "[4]": {"test": "Blood pressure and heart rate in ovariectomized spontaneously hypertensive rats (Table A)", "type": "in vivo, spontaneously hypertensive rats (SHR)", "conditions": "average value; for Blood Pressure (diastolic): ovariectomy group 94.6667; for Blood Pressure (average): ovariectomy group 107; for Blood Pressure (systolic): ovariectomy group 131.667", "method": "as §2\nAlthough administration of olmesartan brought no changes in the length and weight of the bone, concentration dependent decrease was recognized in TRAP activity in the thigh bone (Ovariectomy+ARB0.5 group: 71.7±8.7 U/L; Ovariectomy+ARB 1 group: 66.1±3.6 U/L). Concentration dependent decrease in blood pressure was also recognized as a result of administration of olmesartan (Table A)."}, "[5]": {"test_system": "osteoclasts (TRAP positive multinucleated cells) in domestic rabbit bone marrow culture system", "test": "Osteoclast formation induced by active vitamin D3 in domestic rabbit bone marrow culture (TRAP staining)", "type": "cell-based, domestic rabbit (New Zealand White Rabbit)", "method": "Purpose: Using a domestic rabbit bone marrow culture system, the number of osteoclasts which were differentiation-induced by active vitamin D3 was measured. Then, inhibitory effect of olmesartan medoxomil was examined.\nMethods: A three-day-old domestic rabbit (New Zealand White Rabbit) was sacrificed, followed by removal of the thigh bone and the tibia. After collection of the bone marrow, the leukocyte (granulocyte-monocyte) fraction was isolated and cultured under conditions of α-MEM, 10% FBS, 5% CO2, 37° C. 24-well culture plates were used for the culture. The cell count was adjusted to 5×10^4 cells/well. Active vitamin D3 (10^−8M) was added to the culture system. On day 3, 7 and 10 of the culture, cells were fixed with 4% paraformaldehyde and stained with tartarate-resistant acid phosphatase (TRAP staining) under acidic conditions (pH 5.0). The number of multinucleated cells stained with red (osteoclasts) was measured. Similar measurement was performed with addition of olmesartan at concentrations of 10^−8, 10^−7 and 10^−6M. With respect to TRAP positive cells (generally, containing 1 to 100 nuclei in one cell), they were divided into three groups depending on the degree of fusion: small cells (containing 1 to 2 nuclei), medium cells (containing 3 to 9 nuclei) and large cells (containing 10 or more nuclei)."}, "[6]": {"conditions": "Ovariectomy + 1 mg/kg/day (n = 3)"}, "[7]": {"conditions": "AngII 1 μM plus test substance 1 μM added simultaneously, AngII group 1.045±0.129, control 0.133±0.0271"}},
  "data": [
    {"molecule": "AngII: angiotensin 2 (AngII) (Sigma), added at 1 μM to human osteoblast culture; increases RANKL expression (DRVYIHPF; Angiotensin-2; UniProt P01019 25-32, looked up)", "values": [
      {"measurement": "sRANKL in culture supernatant", "setting": "[1]; AngII 1 μM alone, non-addition control 0.133±0.0271", "value": "1.045 ± 0.129", "unit": "pM"}
    ]},
    {"molecule": "CCCc1nc(C(C)(C)O)c(C(=O)O)n1Cc1ccc(-c2ccccc2-c2nnn[nH]2)cc1", "note": "[olmesartan, 4-(1-hydroxy-1-methylethyl)-2-propyl-1-[4-[2-(tetrazole-5-yl)phenyl]phenyl]methylimidazole-5-carboxylic acid]", "values": [
      {"measurement": "TRAP activity in the thigh bone", "setting": "[2]; 0.5 mg/kg/day subcutaneously", "value": "71.7±8.7", "unit": "U/L"},
      {"measurement": "TRAP activity in the thigh bone", "setting": "[2]; 1 mg/kg/day subcutaneously", "value": "66.1±3.6", "unit": "U/L"},
      {"measurement": "bone density (dual-energy X-ray absorptiometry)", "setting": "[3]; 0.5 mg/kg/day subcutaneously", "value": "0.1527±0.003454", "unit": "g/cm^2"},
      {"measurement": "bone density (dual-energy X-ray absorptiometry)", "setting": "[3]; 1 mg/kg/day subcutaneously", "value": "0.1539±0.004365", "unit": "g/cm^2"},
      {"measurement": "Blood Pressure (diastolic)", "setting": "[4]; Ovariectomy + 0.5 mg/kg/day", "value": 68.3333},
      {"measurement": "Blood Pressure (average)", "setting": "[4]; Ovariectomy + 0.5 mg/kg/day", "value": 81.3333},
      {"measurement": "Blood Pressure (systolic)", "setting": "[4]; Ovariectomy + 0.5 mg/kg/day", "value": 107},
      {"measurement": "Blood Pressure (diastolic)", "setting": "[4]; [6]", "value": 45.8},
      {"measurement": "Blood Pressure (average)", "setting": "[4]; [6]", "value": 56.25},
      {"measurement": "Blood Pressure (systolic)", "setting": "[4]; [6]", "value": 70.8},
      {"measurement": "sRANKL in culture supernatant", "setting": "[1]; [7]", "value": "0.0442 ± 0.0328", "unit": "pM"},
      {"measurement": "growth of coexisting mesenchymal cells", "setting": "[5]; any of the groups (10^−8, 10^−7, 10^−6 M)", "value": "no remarkable change"},
      {"measurement": "TRAP positive cells, average cell count, medium cells (containing 3 to 9 nuclei)", "setting": "[5]; day 10, olmesartan 10^−6 M, active vitamin D3 10^−8M, control 68.6", "value": 50.2},
      {"measurement": "TRAP positive cells, average cell count, large cells (containing 10 or more nuclei)", "setting": "[5]; day 10, olmesartan 10^−6 M, active vitamin D3 10^−8M, control 80.6", "value": 23.0},
      {"measurement": "TRAP positive cells, average cell count, small cells (containing 1 to 2 nuclei)", "setting": "[5]; day 10, olmesartan 10^−6 M, active vitamin D3 10^−8M, control 101.6", "value": 192.8},
      {"measurement": "fusion of mononuclear cells", "setting": "[5]; olmesartan 10^−6 M, day 3, compared to control group", "value": "significantly reduced"},
      {"measurement": "change in TRAP positive cell count compared to the control group", "setting": "[5]; olmesartan 10^−6 M, day 10", "value": "a significant reduction"},
      {"measurement": "change in TRAP positive cell count compared to the control group", "setting": "[5]; olmesartan 10^−7 M, day 10", "value": "a reduction in TRAP positive cell count"},
      {"measurement": "change in TRAP positive cell count compared to the control group", "setting": "[5]; olmesartan 10^−8 M", "value": "no remarkable change"},
      {"measurement": "osteoclasts contributing to bone resorption (medium and large cells)", "setting": "[5]; olmesartan addition groups, control group 149.2, p<0.05", "value": 73.2},
      {"measurement": "total number of TRAP positive, multinucleated cells", "setting": "[5]; olmesartan addition groups, control group 250.8, no statistically significant difference", "value": 265.0}
    ]},
    {"molecule": "Cc1cc(Cn2cnc3c2C[C@@H](C(=O)O)N(C(=O)C(c2ccccc2)c2ccccc2)C3)ccc1N(C)C", "note": "[PD (123319), (S)-1-(4-[dimethylamino]-3-methylphenyl)methyl-5-(diphenylacetyl)-4,5,6,7-tetrahydro-1H-imidazo[4,5-c]pyridine-6-carboxylate]", "values": [
      {"measurement": "sRANKL in culture supernatant", "setting": "[1]; [7]", "value": "0.747 ± 0.0855", "unit": "pM"}
    ]}
  ]
}
